Tests used:
[1] = tested on: histone H3K23 acetylation in U2OS cells; assay: Histone H3 Lysine 23 Acetylation Biomarker Assay; assay type: cell-based; details: Homo sapiens, 24 hours incubation
Protocol: Compounds were tested for their ability to inhibit acetylation of the histone H3K23 marker in the following assay:
The cell line U2OS was seeded at a density of 9,000 cells per well in 96 well optical quality tissue culture plates in RPMI medium and 10% foetal bovine serum, and allowed to adhere for 24 hours under standard culture conditions (37 degree Celsius, 5% CO2). At the end of this period the medium was aspirated. […] After incubation for 24 hours, the cells were fixed with 3.7% formaldehyde in PBS for 20 minutes at room temperature, washed (5×5 minutes) with phosphate buffer saline containing 0.1% Tween 20 and blocked with Odyssey blocking buffer (LI-COR, Lincoln, Nebr.) containing 0.1% TritonX100. Anti-H3K23ac specific antibody (Abcam ab177275) in Odyssey blocking buffer containing 0.1% Tween 20 was added and incubated for 16 hours at 4 degree Celsius. After washing (as above), a secondary antibody labelled with Alexa647 dye (LifeTechnologies) and Hoechst 33342 (1 μg/mL, SigmaAldrich) were added for 1 hour incubation. Plates were washed as previously and read on a PerkinElmer Phenix high content imaging platform. Using a Columbus image analysis pipeline, individual nuclei were located by Hoechst 33342 stain and the acetylation level was calculated from the Alexa647-related intensity in the same area.

[2] = target: HBO1-KAT7 (Homo sapiens (Human), UniProt O95251); assay: biochemical
HBO1-KAT7, sequence (O95251 other isoform, or with tags, fused parts or gaps): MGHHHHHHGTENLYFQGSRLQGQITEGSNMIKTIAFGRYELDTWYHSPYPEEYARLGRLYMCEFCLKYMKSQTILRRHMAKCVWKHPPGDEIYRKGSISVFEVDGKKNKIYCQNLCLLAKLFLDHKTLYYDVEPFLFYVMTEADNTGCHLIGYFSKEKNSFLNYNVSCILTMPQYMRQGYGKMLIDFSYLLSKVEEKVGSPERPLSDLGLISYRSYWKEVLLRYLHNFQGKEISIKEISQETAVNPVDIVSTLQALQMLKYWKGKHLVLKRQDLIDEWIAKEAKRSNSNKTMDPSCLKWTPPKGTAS

[3] = tested on: histone H2A.Z Lysine 7 acetylation in U2OS cells; assay: H2A.Z Lysine 7 Acetylation Biomarker Assay; assay type: cell-based; details: Homo sapiens, serum free medium, 24 hours incubation
Protocol: Compounds were tested for their ability to inhibit the histone H2A.Z Lysine 7 acetylation marker in the following assay: The cell line U2OS was seeded at a density of 3,000 cells per well in 384-well optical quality tissue culture plates in RPMI medium supplemented with 10% foetal bovine serum and 10 mM Hepes. The cells were allowed to adhere for 24 hours under standard culture conditions (37 degree Celsius, 5% CO2). At the end of this period the cells were washed with serum free medium. […] 2018, at 30 μM concentration. After incubation for 24 hours, the cells were fixed with 4% formaldehyde in PBS for 15 minutes at room temperature, washed with phosphate buffer saline and blocked with blocking buffer containing 0.2% TritonX100 and 2% BSA. Anti-H2A.ZK7ac specific antibody (Abcam) in blocking buffer was added and incubated overnight at 4 degree Celsius. After washing, a secondary antibody labelled with AlexaFluor 488 dye (ThermoFisher) and Hoechst 33342 (1 μg/mL, Life Technologies) were added for 2 hours incubation at room temperature. Plates were washed and read on a PerkinElmer Opera HCS high content imaging platform. Using a Columbus image analysis pipeline, individual nuclei were located by Hoechst 33342 stain and the acetylation level was calculated from the AlexaFluor 488-related intensity in the same area.

[4] = target: TIP60-KAT5 (Homo sapiens (Human), UniProt Q92993); assay: biochemical
TIP60-KAT5, sequence (Q92993 other isoform, or with tags, fused parts or gaps): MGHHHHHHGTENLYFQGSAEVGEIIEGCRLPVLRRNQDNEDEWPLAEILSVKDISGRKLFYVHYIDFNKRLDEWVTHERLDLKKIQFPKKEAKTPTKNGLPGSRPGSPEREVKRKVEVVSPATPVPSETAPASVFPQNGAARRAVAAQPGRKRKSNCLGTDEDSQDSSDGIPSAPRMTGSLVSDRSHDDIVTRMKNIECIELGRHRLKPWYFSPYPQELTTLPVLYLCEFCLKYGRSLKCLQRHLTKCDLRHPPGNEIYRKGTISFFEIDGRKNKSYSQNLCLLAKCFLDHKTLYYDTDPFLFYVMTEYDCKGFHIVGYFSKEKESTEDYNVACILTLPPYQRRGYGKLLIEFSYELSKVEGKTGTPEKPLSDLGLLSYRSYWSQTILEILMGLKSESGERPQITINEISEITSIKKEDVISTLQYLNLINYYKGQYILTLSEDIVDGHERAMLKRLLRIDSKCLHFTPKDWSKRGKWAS

[5] = tested on: histone H3 Lysine 14 acetylation in U2OS cells; assay: Histone H3 Lysine 14 Acetylation Biomarker Assay; assay type: cell-based; details: Homo sapiens, serum free medium, 24 hours incubation
Protocol: Compounds were tested for their ability to inhibit acetylation of the histone H3 Lysine 14 marker in the following assay:
The cell line U2OS was seeded at a density of 3,000 cells per well in 384-well optical quality tissue culture plates in RPMI medium supplemented with 10% foetal bovine serum and 10 mM Hepes. The cells were allowed to adhere for 24 hours under standard culture conditions (37 degree Celsius, 5% CO2). At the end of this period the cells were washed with serum free medium. […] After incubation for 24 hours, the cells were fixed with 4% formaldehyde in PBS for 15 minutes at room temperature, washed with phosphate buffer saline and blocked with blocking buffer containing 0.2% TritonX100 and 2% BSA. Anti-H3K14ac specific antibody (Cell Signalling Technologies) in blocking buffer was added and incubated overnight at 4 degree Celsius. After washing, a secondary antibody labelled with AlexaFluor 488 dye (ThermoFisher) and Hoechst 33342 (1 μg/mL, Life Technologies) were added for 2 hours incubation at room temperature. Plates were washed and read on a PerkinElmer Opera HCS high content imaging platform. Using a Columbus image analysis pipeline, individual nuclei were located by Hoechst 33342 stain and the acetylation level was calculated from the AlexaFluor 488-related intensity in the same area.

[6] = target: MOZ-KAT6A (Homo sapiens (Human), UniProt Q92794); assay: biochemical
MOZ-KAT6A, sequence (Q92794 other isoform, or with tags, fused parts or gaps): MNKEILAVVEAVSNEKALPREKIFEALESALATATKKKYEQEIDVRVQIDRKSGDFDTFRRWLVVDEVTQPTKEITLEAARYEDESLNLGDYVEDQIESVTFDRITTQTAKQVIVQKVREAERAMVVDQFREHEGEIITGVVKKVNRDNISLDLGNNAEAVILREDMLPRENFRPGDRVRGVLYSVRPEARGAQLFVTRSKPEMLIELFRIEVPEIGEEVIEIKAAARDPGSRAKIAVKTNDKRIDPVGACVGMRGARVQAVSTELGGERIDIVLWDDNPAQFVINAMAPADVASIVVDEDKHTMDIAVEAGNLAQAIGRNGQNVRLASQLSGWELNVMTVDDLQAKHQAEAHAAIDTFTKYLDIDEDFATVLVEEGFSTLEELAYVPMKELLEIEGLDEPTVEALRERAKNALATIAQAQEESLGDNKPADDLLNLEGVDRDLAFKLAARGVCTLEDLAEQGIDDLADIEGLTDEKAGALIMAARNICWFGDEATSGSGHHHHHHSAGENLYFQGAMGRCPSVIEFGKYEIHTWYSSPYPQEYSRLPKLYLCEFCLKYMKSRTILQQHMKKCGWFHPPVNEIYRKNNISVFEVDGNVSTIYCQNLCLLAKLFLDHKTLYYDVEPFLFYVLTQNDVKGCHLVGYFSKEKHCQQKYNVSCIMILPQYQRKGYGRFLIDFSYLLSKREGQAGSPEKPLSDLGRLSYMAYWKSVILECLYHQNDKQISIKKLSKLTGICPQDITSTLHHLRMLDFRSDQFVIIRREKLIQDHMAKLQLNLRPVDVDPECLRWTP

[7] = target: KAT8 (Homo sapiens (Human), UniProt Q9H7Z6); assay: KAT assay (SAMDI mass spectrometry), KAT8; assay type: biochemical; details: 1 μM AcCoA
Protocol: (§1) Prepare 10 mM stock solutions in 100% DMSO from solid material • 2. Serial dilute 10 mM, 1 mM or 0.1 mM compound stocks 3-fold in 100% DMSO for 11-point dose response
(§2) Prepare 1× assay buffer containing 10 mM Tris HCL pH 8.0, 2.5 mM NaCl, 0.5 mM EDTA, 0.005% BSG and 0.02% Tween-20 • 2. Dilute Histone peptide (CPC Scientific) and AcCoA (Sigma) together in assay buffer to 2×. • 3. Dilute KAT enzyme in assay buffer to 2×.
(§3) Enzyme reaction • 1. Final reaction conditions for each KAT assay in a 20 ul assay reaction volume: • i. KAT5 25 nM, 1 uM AcCoA, 2 uM H4 1-21 peptide, 30-minute reaction • ii. KAT6A 15 nM, 1 uM AcCoA, 2 uM H3 1-21 peptide, 45-minute reaction • iii. KAT6B 25 nM, 1 uM AcCoA, 2 uM H3 1-21 peptide, 60-minute reaction • iv. KAT7 12.5 nM, 1 uM AcCoA, 2 uM H3 1-21 peptide, 45-minute reaction • v. KAT8 15 nM, 1 uM AcCoA, 2 uM H3 1-21 peptide, 45-minute reaction • 2. Add 0.5 ul of diluted compound to the assay plate (384-well V-bottom polypropylene plates) or 0.5 ul of DMSO for control wells. • 3. Add 10 ul of 2× Histone peptide/2×AcCoA mix to the assay plate. • 4. Add 10 ul of 2× enzyme to the assay plate. • 5. Stop the reaction after the indicated time with the addition of 2 ul of 5% formic acid • 6. Each reaction was analyzed using self-assembled monolayer desorption/ionization time-of-flight mass spectrometry (Mrksich, Milan (2008) Mass Spectrometry of Self-Assembled Monolayers: A New Tool for Molecular Surface Science ACS Nano 2008 2 (1), 7-18; SAMDI Tech, Inc. (Chicago, Ill.)). • 7. Area under the curve (AUC) for both substrate and product peaks was determined for KAT5 at M.W. 2561 [Substrate+H]^+ and 2603 [Product+H]^+ with a +/−1 Da tolerance, respectively • 8. Area under the curve (AUC) for both substrate and product peaks was determined for KAT6a, KAT6B, KAT7 and KAT8 at M.W. 2723 [Substrate+H]^+ and 2765 [Product+H]^+ with a +/−1 Da tolerance, respectively. […] Percent conversion to product was calculated by: AUCProduct/(AUCsubstrate+AUCProduct).
(§4) IC50 values were determined by fitting the % conversion at each inhibitor concentration to the 4-parameter IC50 equation using Pfizer proprietary curve fitting software. • 2. Ki values were determined by fitting the % conversion at each inhibitor concentration to the Morrison equation for tightbinding competitive inhibitors using Pfizer proprietary curve fitting software.
(§5) KAT enzymes were expressed using a baculovirus expression system and purified at Pfizer, La Jolla. […] Acetyl coenzyme A was purchased from Sigma-Aldrich (St. Louis, Mo.). All other biochemical reagents were purchased from Sigma-Aldrich or ThermoFisher Scientific (Waltham, Mass.).
(§6) KAT assays were performed at room temperature in assay buffer containing 1 μM AcCoA, 2 μM histone peptide, 10 mM Tris HCL pH 8.0, 2.5 mM NaCl, 0.5 mM EDTA, 0.005% BSG and 0.02% Tween-20. 10 ul of 2× Histone peptide/AcCoA mix was added to a 384-well V-bottom polypropylene assay plate containing 0.5 ul of serially diluted test compound in 100% dimethyl sulfoxide (DMSO). To start the reaction, 10 ul of 2× enzyme solution was added to the assay plate. KAT assays were terminated after 30-60 minutes with the addition of 2 ul of 5% formic acid. All assays used histone H3 (1-21) peptide except for the KAT5 assay which used histone H4 (1-21) peptide. The final enzyme concentration for each KAT was as follows: KAT5, 25 nM; KAT6A, 15 nM; KAT6B, 25 nM; KAT7, 12.5 nM; KAT8 15 nM. Each reaction was analyzed using self-assembled monolayer desorption/ionization time-of-flight mass spectrometry (Mrksich, Milan (2008) Mass Spectrometry of Self-Assembled Monolayers: A New Tool for Molecular Surface Science ACS Nano 2008 2 (1), 7-18; SAMDI Tech, Inc. (Chicago, Ill.)).
(§7) Area under the curve (AUC) for both substrate and product peaks was determined for KAT5 at M.W. 2561 [Substrate+H]^+ and 2603 [Product+H]^+ with a +/−1 Da tolerance, respectively.

[8] = target: KAT7 (Homo sapiens (Human), UniProt O95251); assay: KAT assay (SAMDI mass spectrometry), KAT7; assay type: biochemical; details: KAT7 Ki at 1 μM AcCoA;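 further: Baculovirus-expressed enzyme acetylating a histone peptide at room temperature, percent conversion from product and substrate peak areas, Ki from a Morrison tight-binding competitive fit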
KAT7, sequence (O95251 whole entry): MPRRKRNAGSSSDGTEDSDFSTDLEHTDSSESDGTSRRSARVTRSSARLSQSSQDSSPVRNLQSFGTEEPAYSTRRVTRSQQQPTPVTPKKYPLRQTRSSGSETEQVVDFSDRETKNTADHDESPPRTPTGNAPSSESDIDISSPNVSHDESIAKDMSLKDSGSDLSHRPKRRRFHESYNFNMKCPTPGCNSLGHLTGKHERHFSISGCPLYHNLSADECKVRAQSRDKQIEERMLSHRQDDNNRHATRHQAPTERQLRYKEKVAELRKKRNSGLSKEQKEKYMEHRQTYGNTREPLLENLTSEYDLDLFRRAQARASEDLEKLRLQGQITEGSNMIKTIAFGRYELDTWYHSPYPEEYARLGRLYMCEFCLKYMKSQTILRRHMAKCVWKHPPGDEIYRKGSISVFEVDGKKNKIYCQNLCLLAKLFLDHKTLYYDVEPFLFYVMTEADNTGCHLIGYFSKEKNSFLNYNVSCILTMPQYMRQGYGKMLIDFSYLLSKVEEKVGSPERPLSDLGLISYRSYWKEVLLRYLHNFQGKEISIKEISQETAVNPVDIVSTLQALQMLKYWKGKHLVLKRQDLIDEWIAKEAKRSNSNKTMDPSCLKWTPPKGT
Protocol: as §1, §2, §3, §4, §5, §6, §7

[9] = target: KAT6A (Homo sapiens (Human), UniProt Q92794); assay: KAT assay (SAMDI mass spectrometry), KAT6A; assay type: biochemical; details: KAT6a Ki at 1 μM AcCoA, 1 μM AcCoA;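 further: Baculovirus-expressed KAT6A acetylating histone H3 (1-21) peptide (2 µM), 30-60 min at room temperature, % product conversion fitted to Morrison equation for tight-binding competitive inhibitors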
KAT6A, sequence (Q92794 whole entry): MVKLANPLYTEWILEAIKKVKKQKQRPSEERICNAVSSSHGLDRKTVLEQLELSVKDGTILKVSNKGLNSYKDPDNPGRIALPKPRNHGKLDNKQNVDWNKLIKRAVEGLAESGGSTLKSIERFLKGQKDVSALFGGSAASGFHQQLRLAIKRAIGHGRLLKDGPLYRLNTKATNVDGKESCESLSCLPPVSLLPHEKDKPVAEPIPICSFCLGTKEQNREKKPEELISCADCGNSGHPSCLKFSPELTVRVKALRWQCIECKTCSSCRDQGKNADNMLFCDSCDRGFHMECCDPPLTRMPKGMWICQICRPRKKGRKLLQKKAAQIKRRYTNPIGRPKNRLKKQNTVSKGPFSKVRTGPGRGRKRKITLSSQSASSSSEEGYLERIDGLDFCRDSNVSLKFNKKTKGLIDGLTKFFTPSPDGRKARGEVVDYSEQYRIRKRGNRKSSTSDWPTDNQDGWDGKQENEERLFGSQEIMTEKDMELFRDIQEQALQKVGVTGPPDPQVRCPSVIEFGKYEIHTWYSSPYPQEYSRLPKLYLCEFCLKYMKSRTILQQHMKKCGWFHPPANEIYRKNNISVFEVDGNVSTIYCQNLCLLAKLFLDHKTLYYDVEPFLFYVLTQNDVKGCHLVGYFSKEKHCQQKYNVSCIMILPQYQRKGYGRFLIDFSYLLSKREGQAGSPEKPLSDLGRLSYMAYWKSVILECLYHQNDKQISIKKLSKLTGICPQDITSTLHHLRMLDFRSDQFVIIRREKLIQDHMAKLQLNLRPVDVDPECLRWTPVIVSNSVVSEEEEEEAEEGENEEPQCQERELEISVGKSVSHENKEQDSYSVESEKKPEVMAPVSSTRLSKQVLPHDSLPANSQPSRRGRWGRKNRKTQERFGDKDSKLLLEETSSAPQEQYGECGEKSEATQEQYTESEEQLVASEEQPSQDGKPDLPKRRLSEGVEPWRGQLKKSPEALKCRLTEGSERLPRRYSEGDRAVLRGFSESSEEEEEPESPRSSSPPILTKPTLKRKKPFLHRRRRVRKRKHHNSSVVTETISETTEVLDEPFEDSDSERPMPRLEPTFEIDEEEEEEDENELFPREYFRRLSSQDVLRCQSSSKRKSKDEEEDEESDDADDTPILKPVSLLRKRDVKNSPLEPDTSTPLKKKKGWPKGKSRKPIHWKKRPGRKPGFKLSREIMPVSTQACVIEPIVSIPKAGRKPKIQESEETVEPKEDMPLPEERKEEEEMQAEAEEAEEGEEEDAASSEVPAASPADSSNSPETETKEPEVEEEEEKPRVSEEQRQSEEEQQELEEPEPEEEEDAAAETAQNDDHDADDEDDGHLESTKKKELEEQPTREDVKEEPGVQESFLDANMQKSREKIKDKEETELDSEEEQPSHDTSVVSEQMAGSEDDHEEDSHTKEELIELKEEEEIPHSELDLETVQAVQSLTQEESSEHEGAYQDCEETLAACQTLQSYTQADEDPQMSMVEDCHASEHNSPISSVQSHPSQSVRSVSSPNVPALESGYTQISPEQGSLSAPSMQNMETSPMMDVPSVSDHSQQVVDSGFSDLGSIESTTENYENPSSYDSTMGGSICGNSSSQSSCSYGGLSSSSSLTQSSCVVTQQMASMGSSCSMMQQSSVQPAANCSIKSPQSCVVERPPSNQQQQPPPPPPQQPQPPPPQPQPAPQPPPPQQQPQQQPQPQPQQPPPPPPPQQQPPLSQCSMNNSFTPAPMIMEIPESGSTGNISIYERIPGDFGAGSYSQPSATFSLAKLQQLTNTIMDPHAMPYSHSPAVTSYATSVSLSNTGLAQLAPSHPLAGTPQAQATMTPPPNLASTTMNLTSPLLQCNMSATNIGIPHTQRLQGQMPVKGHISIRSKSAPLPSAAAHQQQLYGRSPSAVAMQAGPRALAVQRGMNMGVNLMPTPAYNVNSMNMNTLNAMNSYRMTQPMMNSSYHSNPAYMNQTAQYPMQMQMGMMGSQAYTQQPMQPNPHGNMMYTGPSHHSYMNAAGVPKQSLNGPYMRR
Protocol: as §1, §2, §3, §4, §5, §6, §7

[10] = target: KAT6B (Homo sapiens (Human), UniProt Q8WYB5); assay: KAT assay (SAMDI mass spectrometry), KAT6B; assay type: biochemical; details: 1 μM AcCoA
Protocol: as §1, §2, §3, §4, §5, §6, §7

[11] = target: KAT5 (Homo sapiens (Human), UniProt Q92993); assay: KAT assay (SAMDI mass spectrometry), KAT5; assay type: biochemical; details: 1 μM AcCoA;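 further: Baculovirus-expressed KAT5 acetylating a histone H4 peptide at room temperature, read as percent conversion to product, Ki from a Morrison tight-binding competitive fit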
KAT5, sequence (Q92993 whole entry): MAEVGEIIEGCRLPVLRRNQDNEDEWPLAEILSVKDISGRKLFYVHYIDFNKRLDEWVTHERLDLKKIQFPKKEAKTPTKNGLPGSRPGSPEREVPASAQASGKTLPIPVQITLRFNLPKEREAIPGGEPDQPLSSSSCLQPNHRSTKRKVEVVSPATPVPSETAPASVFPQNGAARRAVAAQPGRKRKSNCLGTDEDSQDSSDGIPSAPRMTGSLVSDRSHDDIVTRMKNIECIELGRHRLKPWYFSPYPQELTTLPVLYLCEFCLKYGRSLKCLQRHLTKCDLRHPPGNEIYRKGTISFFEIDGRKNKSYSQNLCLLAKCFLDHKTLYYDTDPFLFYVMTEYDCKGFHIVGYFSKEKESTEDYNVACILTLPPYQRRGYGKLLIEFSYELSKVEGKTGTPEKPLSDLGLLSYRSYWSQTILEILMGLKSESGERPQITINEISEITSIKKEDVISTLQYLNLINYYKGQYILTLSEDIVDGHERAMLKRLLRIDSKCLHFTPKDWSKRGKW
Protocol: as §1, §2, §3, §4, §5, §6, §7

COc1cccc(OC)c1S(=O)(=O)Nc1noc2cc(Cn3cccn3)cc(OC)c12 [Example 98, N-(6-((1H-pyrazol-1-yl)methyl)-4-methoxybenzo[d]isoxazol-3-yl)-2,6-dimethoxybenzenesulfonamide] showed an IC50 [1] of 0.6 nM.
Work on COc1cc(Cn2cccn2)cc2onc(NS(=O)(=O)c3cccc4cc(C)cnc34)c12 [Example 99, N-(6-((1H-pyrazol-1-yl)methyl)-4-methoxybenzo[d]isoxazol-3-yl)-3-methylquinoline-8-sulfonamide] yielded an IC50 [2] of 120 nM, an IC50 [3] of 11400 nM and an IC50 [4] of 980 nM. It also gave an IC50 [5] of 1550 nM and an IC50 [6] of 13 nM.
COc1cccc(OC)c1S(=O)(=O)Nc1noc2cc(Cn3cc(C)cn3)cc(OC)c12 [Example 100, 2,6-dimethoxy-N-(4-methoxy-6-((4-methyl-1H-pyrazol-1-yl)methyl)benzo[d]isoxazol-3-yl)benzenesulfonamide] showed an IC50 [2] of 340 nM, a Ki [7] of 4950 nM and a Ki [8] of 610 nM. For the same compound, the Ki [9] was 40.3 nM, the IC50 [3] was 15000 nM and the IC50 [1] was 46 nM. For the same compound, the IC50 [4] was 11200 nM, the Ki [10] was 58.3 nM and the IC50 [5] was 1360 nM. For the same compound, the IC50 [6] was 30 nM and the Ki [11] was 6220 nM.
COc1cccc(OC)c1S(=O)(=O)Nc1noc2c(-c3cnn(C)c3)cc(C)cc12 [Example 102, 2,6-dimethoxy-N-(5-methyl-7-(1-methyl-1H-pyrazol-4-yl)benzo[d]isoxazol-3-yl)benzenesulfonamide] showed an IC50 [2] of 1400 nM, an IC50 [3] greater than 40000 nM and an IC50 [4] greater than 125000 nM. The IC50 [5] was 28300 nM and the IC50 [6] was 48800 nM.

From patent publication US11492346B2, “Benzisoxazole sulfonamide derivatives” (Pfizer Inc., priority 2019, dated 2022)
